Results reported in US12565680B2, “Cancer neoantigens and their utilities in cancer vaccines and TCR-based cancer immunotherapy” (THE METHODIST HOSPITAL SYSTEM, priority 2018, dated 2026).

Key:
[1] = system: 135TIL; test: IFN-γ ELISA with bulk 135TIL (IVT-RNA electroporated 135EBV-B cells; peptide titration and truncation); format: cell-based, human; details: serially diluted peptides
Description: Due to low transfection efficiency of EBV-B cells, in vitro transcribed (IVT) RNA of 24 TMGs were generated and then electroporated them into 135EBV-B cells, followed by adding 135TIL cells for antigen recognition based on cytokine release assay.
(§1) 96-well tissue culture plates were coated with phosphate-buffered saline (PBS, GenDEPOT) containing 50 μg/ml poly-L-lysine (Millipore Sigma) at 37° C. 10 min later, the plates were rinsed twice with PBS. Tumor cells or 293-APCs were seeded at 5×10^4/well in the 96-well plate and cultured at 37° C., 5% CO2 for at least 4 h. For plasmid transfection, 250 ng of plasmid DNA were transfected into 293-APCs per well with 0.5 μl of Lipofectamine 2000 (Thermo Fisher Scientific) according to the manufacturer's instructions and incubated at 37° C., in 5% CO2 overnight. For peptide presentation, synthesized peptides (GeneScript) were added to each well at different final concentrations from 10^2 to 10^−4 μM and incubated at 37° C., 5% CO2. The cells transfected with plasmids or pulsed with peptides were washed with TCM twice, and then cocultured with T cells (1×10^5/well). […]
96-well microplate (Greiner Bio-one) was coated with 50 μl of PBS containing anti-human IFN-γ (Thermo Fisher Scientific, primary antibody, 1 μg/ml) per well and incubated at 4° C. overnight. […] The plate was read at OD450 nm. The concentration of IFN-γ was calculated by standard reading. […]

[2] = system: T-cell clones of 135TIL; test: IFN-γ ELISA with tumor-reactive T-cell clones of 135TIL; format: cell-based, human
Source text: Thus, immunogenic antigens can be generated from various sources or mechanisms [such as alternative ORFs, noncoding regions (3′ and 5′ UTRs, introns, noncoding RNA)]. […] All other tumor-reactive CD4^+ T-cell clones and CD8^+ T-cell clones recognized the mutation-derived neoantigens. […] To identify these two antigens recognized by these two CD4^+ T-cell clones, an Ii-fusion cDNA library derived from 135 mel tumor cells was constructed using experimental procedures. The Ii-fusion cDNA library pools (approximately 100 cDNA clones per pool) were transfected into 293IMDR3/DP4 or 293IMDR4/DP4 cells, followed by co-culturing with CD4^+ T-cell clones (135-1C1 or 135-1E1). After 2×10^5 cDNA clones, positive cDNA library pools that stimulate two T-cell clones, respectively, were identified based on IFN-γ release by ELISA (FIG. 6B). The positive pools were then transformed into Stbl3™ Escherichia coli, and single bacteria colonies were picked for plasmid DNA isolation. The screening assays were repeated in the same APCs transfected with the single cDNA-containing plasmids, and identified three clones that were able to stimulate 135-1C1 T cells, and two clones that reacted with 135-1E1 T cells (FIG. 6C). […] The 135-1E1 T cell-reactive cDNA clones encoded the product translated from an alternative reading frame of CTAG2 (LAGE1b) (FIG. 6C and FIG. 7A). […] LAGE1 is a cancer-testis antigen, with over 80% amino acid sequence identical to NY-ESO-1 protein, which is the most immunogenic tumor antigen identified to date. To define the T cell epitopes, wee generated a series of deletions and truncations of 3′ UTR region of ADIPOR2 gene, and narrowed down T cell epitope to a 26 aa peptide-coding sequence that stimulate 135-1C1 T cell response (FIG. 7D). Using similar approach, T cell epitopes were narrowed down to a 69 aa peptide-coding sequence of the LAGE1b alternative ORF2 for 135-1E1 T-cell recognition (FIG. 7E).
Using systemic and multiple approaches, 8 cancer neoantigens were identified in 135 mel and 7 neoantigens in 136 mel. To understand the potential mechanisms that restrain the number of neoantigens that could induce T cell response, it was asked whether these neoantigens were equally recognized by T cells.
T-cell cloning and expansion were performed. Briefly, T-cell clones from 135TILs were generated by a limited dilution (0.3 cell/well) in 96-well plates. Allogeneic PBMCs from normal donors were irradiated (60 Gy) and then seeded as feeder cells (7×10^4/well) in TCM containing 35 ng/ml OKT3 (anti-hCD3 antibody) (R&D Systems) and 35 ng/ml anti-hCD28 antibody (R&D Systems). On day 1, recombinant IL-2 was added to the final concentration of 300 IU/ml. On day 5, half of the culture medium was replaced with fresh TCM containing recombinant IL-2, and then the medium was changed every other day or when the medium color turned yellow. On day 14, T-cell clones were harvested, counted, tested for tumor reactivity. Tumor reactive T-cell clones were further expanded.
as §1, with “(1×10^5/well). After overnight culture, 50 μl of supernatant was collected for measuring cytokine release with an ELISA assay.” for “(1×10^5/well).”

[3] = system: 135TIL; test: Intracellular staining of IFN-γ after neoantigen peptide stimulation, 135TIL; format: cell-based, human
Description: T cells were stimulated by various in vitro methods, such as tumor cells, peptides or DNA encoding neoantigens, etc. and induced to release cytokines. Stimulated T cells were resuspended in 100 μl of Cytofix/Cytoperm solution (BD Biosciences) per well for microwell plates (or 250 μl for tubes) and incubated for 20 min at 4° C. for cell fixation. Fixed cells were permeabilized by washing twice in 1× Perm/Wash buffer (BD Biosciences). Then the fixed/permeabilized cells were thoroughly resuspended in 50 μl of 1× Perm/Wash buffer containing 1 μl of phycoerythrin (PE)-conjugated IFN-γ antibody (Thermo Fisher Scientific) and incubate at 4° C. for 30 min in the dark. After that the cells were washed twice with 1× Perm/Wash buffer and ready for flow cytometric analysis.

[4] = system: 135TIL; test: TCR β CDR3 repertoire analysis; parameters: species or system human; details: TCRβ CDR3 profiling
Source text: To address this issue, PCDHB16 neoantigen-specific CD4^+ T cells were isolated by FACS sorting of PCDHB16-neoantigen T cells from freshly generated bulk T cells after stimulated PCDHB16 neoepitope peptide-pulsed 135EBV-B cells. Using the similar approach, MPG-specific CD8+ T cells were also purified from freshly generated bulk T cells after stimulated MPG neoepitope peptide-pulsed 135EBV-B cells. Genomic DNAs were isolated from the two purified neoantigen-specific T cell populations, as well as the parental bulk T cells, and used as templates for TCR β-chain CDR3 repertoire amplification. […] After the amplicons (from PCDHB16-, MPG-specific T cells and bulk 135TIL) were subjected to deep-sequenced via next-generation sequencing (reads>100,000 per sample), followed by bioinformatic analysis and TCR repertoire alignment. […] The relative TCR sequence frequencies that were identical to those in PCDHB16-specific T cells and MPG-specific T cells were determined in total 135TIL cell population (FIG. 10F). […]
Cytokine Secretion Assay-Detection Kit (MACS Miltenyi Biotec) was used in cell-surface IFN-γ staining based on a commercial protocol. […] Finally cells were washed with cold buffer and ready for flow cytometric analysis. […]

With “MKLTSLMCNPVKSPFFGCVCGHVPISMCVSTCSSLPTASCALDLTVLAENSHQVGA [ADIPOR2, 56 aa reading frame in the 3′UTR of gene ADIPOR2]” as the sequence, how does the “recognition of titrated peptides by 135TIL (IFN-γ ELISA)” value [1] read?
The value was “little or no activity”.

And the “recognition of antigen peptides by specific T-cell clones” value ([2]; peptide titration, 135-1C1 (ADIPOR2), 135-1E1 (LAGE1b))?
Its value is “strongly recognized”.

For “YGMYFCMNISSQEDGACVLLRALEP [MPG, immunodominant MHC-I neoantigen of patient #135]”, which “percentage of CD8^+ tumor-reactive T-cell clones recognizing the neoantigen” value ([2]; 40 clones) is on record?
The value was 67.5%.

What about the “number of CD8^+ tumor-reactive T-cell clones recognizing the neoantigen” value ([2]; of 40 clones) of the same sequence?
The value was 27.

What about the “share of tumor-reactive CD8^+ T cells specific for the neoantigen” value [3] of the same sequence?
Its value is 65%.

What about the “CD8^+ T cells recognizing the neoantigen in the total T cell population” value ([3]; intracellular cytokine staining) of the same sequence?
The value was 12.3%.

What about the “neoantigen-specific TCRs in the total 135TIL TCRs” value [4] of the same sequence?
Its value is 25.5%.
